US20240132431A1, “METHOD FOR ALKYLATING ACIDIC FUNCTIONAL GROUP” (Chugai Seiyaku Kabushiki Kaisha, priority 2021, published 2024)

Target: T1, Bcl-2 protein (Recombinant Human Bcl-2 Protein) (Homo sapiens, UniProt P10415)
T1 construct: purchased Novus NBP2-34889
Assay: Binding evaluation of mixture library compounds to Bcl-2 using AS-MS (affinity selection mass spectrometry)
Summary of the method: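 Bcl-2 binding is scored from LC/MS signal retained with protein through gel-filtration spin columns, normalised to unfiltered and protein-free controls. Incubation: 20 μM protein, […] per compound, 1 h, 23° C.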

T1 sequence (P10415 whole entry): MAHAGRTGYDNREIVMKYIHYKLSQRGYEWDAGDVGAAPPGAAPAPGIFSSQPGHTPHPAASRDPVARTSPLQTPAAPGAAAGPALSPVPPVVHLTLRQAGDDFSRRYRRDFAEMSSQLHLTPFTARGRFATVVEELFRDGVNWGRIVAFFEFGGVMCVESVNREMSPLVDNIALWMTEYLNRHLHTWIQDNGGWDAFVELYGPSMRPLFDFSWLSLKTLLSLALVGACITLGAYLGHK

| ASMS ratio (%) (n = 1) | ASMS ratio (%) (n = 2) | SMILES |
| --- | --- | --- |
| 1.4% | 0.0% | CCOc1cccc(-c2cc(CN3CCN(c4ccc(C(=O)NS(C)(=O)=O)nn4)CC3)cc(OC(F)(F)F)c2)c1 [B2I089-01, 6-[4-[[3-(3-Ethoxyphenyl)-5-(trifluoromethoxy)phenyl]methyl]piperazin-1-yl]-N-methylsulfonylpyridazine-3-carboxamide] |
| 0.0% | 0.0% | CCOc1cncc(-c2cc(CN3CCN(c4ccc(C(=O)NS(C)(=O)=O)nn4)CC3)cc(OC(F)(F)F)c2)c1 [B2I090-01, 6-[4-[[3-(5-Ethoxypyridin-3-yl)-5-(trifluoromethoxy)phenyl]methyl]piperazin-1-yl]-N-methylsulfonylpyridazine-3-carboxamide] |
| 2.6% | 0.3% | CCOc1cncc(-c2ccc(CN3CCN(c4ccc(C(=O)NS(C)(=O)=O)nn4)CC3)c3ccccc23)c1 [B2I092-01, 6-[4-[[4-(5-Ethoxypyridin-3-yl)naphthalen-1-yl]methyl]piperazin-1-yl]-N-methylsulfonylpyridazine-3-carboxamide] |
| 0.0% | 0.0% | CCOc1cncc(-c2csc(CN3CCN(c4ccc(C(=O)NS(C)(=O)=O)nn4)CC3)c2)c1 [B2I094-01, 6-[4-[[4-(5-Ethoxypyridin-3-yl)thiophen-2-yl]methyl]piperazin-1-yl]-N-methylsulfonylpyridazine-3-carboxamide] |
| 0.0% | 0.0% | CCOc1cccc(C#Cc2ccccc2CN2CCN(c3ccc(C(=O)NS(C)(=O)=O)nn3)CC2)c1 [B2I095-01, 6-[4-[[2-[2-(3-Ethoxyphenyl)ethynyl]phenyl]methyl]piperazin-1-yl]-N-methylsulfonylpyridazine-3-carboxamide] |
| 0.0% | 0.0% | CCOc1cncc(C#Cc2ccccc2CN2CCN(c3ccc(C(=O)NS(C)(=O)=O)nn3)CC2)c1 [B2I096-01, 6-[4-[[2-[2-(5-Ethoxypyridin-3-yl)ethynyl]phenyl]methyl]piperazin-1-yl]-N-methylsulfonylpyridazine-3-carboxamide] |
| 0.8% | 1.4% | CCOc1cccc(-c2ccc(C(C)N3CCN(c4ccc(C(=O)NS(C)(=O)=O)cc4)CC3)cc2)c1 (stereo not shown) [B2I097-01, 4-[4-[1-[4-(3-Ethoxyphenyl)phenyl]ethyl]piperazin-1-yl]-N-methylsulfonylbenzamide] |
| 0.0% | 0.0% | CCOc1cncc(-c2ccc(C(C)N3CCN(c4ccc(C(=O)NS(C)(=O)=O)cc4)CC3)cc2)c1 (stereo not shown) [B2I098-01, 4-[4-[1-[4-(5-Ethoxypyridin-3-yl)phenyl]ethyl]piperazin-1-yl]-N-methylsulfonylbenzamide] |
| – | 0.0% | CCOc1cccc(-c2ccc(C(C)N3CCN(c4ccc(C(=O)NS(C)(=O)=O)cc4)CC3)c(F)c2)c1 (stereo not shown) [B2I099-01, 4-[4-[1-[4-(3-Ethoxyphenyl)-2-fluorophenyl]ethyl]piperazin-1-yl]-N-methylsulfonylbenzamide] |
| 0.0% | 0.0% | CCOc1cncc(-c2ccc(C(C)N3CCN(c4ccc(C(=O)NS(C)(=O)=O)cc4)CC3)c(F)c2)c1 (stereo not shown) [B2I100-01, 4-[4-[1-[4-(5-Ethoxypyridin-3-yl)-2-fluorophenyl]ethyl]piperazin-1-yl]-N-methylsulfonylbenzamide] |
| −67.5% | 0.0% | CCOc1cccc(-c2csc(C(=O)N3CCN(c4ccc(C(=O)NS(=O)(=O)C(C)(C)C)nn4)CC3)c2)c1 [B2L001-01, N-tert-Butylsulfonyl-6-[4-[4-(3-ethoxyphenyl)thiophene-2-carbonyl]piperazin-1-yl]pyridazine-3-carboxamide] |
| 0.0% | 0.0% | CCOc1cncc(-c2csc(C(=O)N3CCN(c4ccc(C(=O)NS(=O)(=O)C(C)(C)C)nn4)CC3)c2)c1 [B2L002-01, N-tert-Butylsulfonyl-6-[4-[4-(5-ethoxypyridin-3-yl)thiophene-2-carbonyl]piperazin-1-yl]pyridazine-3-carboxamide] |
| 0.0% | 0.0% | CCOc1cccc(-c2ccc(C(=O)N3CCN(c4ccc(C(=O)NS(=O)(=O)C(C)(C)C)nn4)CC3)cc2C)c1 [B2L003-01, N-tert-Butylsulfonyl-6-[4-[4-(3-ethoxyphenyl)-3-methylbenzoyl]piperazin-1-yl]pyridazine-3-carboxamide] |
| 5.5% | 9.3% | CCOc1cncc(-c2ccc(C(=O)N3CCN(c4ccc(C(=O)NS(=O)(=O)C(C)(C)C)nn4)CC3)cc2C)c1 [B2L004-01, N-tert-Butylsulfonyl-6-[4-[4-(5-ethoxypyridin-3-yl)-3-methylbenzoyl]piperazin-1-yl]pyridazine-3-carboxamide] |
| 0.0% | 0.0% | CCOc1cccc(-c2ccc(C(=O)N3CCN(c4ccc(C(=O)NS(=O)(=O)C(C)(C)C)nn4)CC3)cc2F)c1 [B2L005-01, N-tert-Butylsulfonyl-6-[4-[4-(3-ethoxyphenyl)-3-fluorobenzoyl]piperazin-1-yl]pyridazine-3-carboxamide] |
| 0.0% | 0.0% | CCOc1cncc(-c2ccc(C(=O)N3CCN(c4ccc(C(=O)NS(=O)(=O)C(C)(C)C)nn4)CC3)cc2F)c1 [B2L006-01, N-tert-Butylsulfonyl-6-[4-[4-(5-ethoxypyridin-3-yl)-3-fluorobenzoyl]piperazin-1-yl]pyridazine-3-carboxamide] |
| 0.0% | −1.0% | CCOc1cccc(C#Cc2ccccc2C(=O)N2CCN(c3ccc(C(=O)NS(=O)(=O)C(C)(C)C)nn3)CC2)c1 [B2L007-01, N-tert-Butylsulfonyl-6-[4-[2-[2-(3-ethoxyphenyl)ethynyl]benzoyl]piperazin-1-yl]pyridazine-3-carboxamide] |
| 0.0% | 0.0% | CCOc1cncc(C#Cc2ccccc2C(=O)N2CCN(c3ccc(C(=O)NS(=O)(=O)C(C)(C)C)nn3)CC2)c1 [B2L008-01, N-tert-Butylsulfonyl-6-[4-[2-[2-(5-ethoxypyridin-3-yl)ethynyl]benzoyl]piperazin-1-yl]pyridazine-3-carboxamide] |
| 0.0% | 0.0% | CCOc1cccc(C#Cc2cncc(C(=O)N3CCN(c4ccc(C(=O)NS(=O)(=O)C(C)(C)C)nn4)CC3)c2)c1 [B2L009-01, N-tert-Butylsulfonyl-6-[4-[5-[2-(3-ethoxyphenyl)ethynyl]pyridine-3-carbonyl]piperazin-1-yl]pyridazine-3-carboxamide] |
| 0.0% | 0.0% | CCOc1cncc(C#Cc2cncc(C(=O)N3CCN(c4ccc(C(=O)NS(=O)(=O)C(C)(C)C)nn4)CC3)c2)c1 [B2L010-01, N-tert-Butylsulfonyl-6-[4-[5-[2-(5-ethoxypyridin-3-yl)ethynyl]pyridine-3-carbonyl]piperazin-1-yl]pyridazine-3-carboxamide] |
| 0.0% | 0.0% | CCOc1cccc(-c2ccccc2CCC(=O)N2CCN(c3ccc(C(=O)NS(=O)(=O)C(C)(C)C)nn3)CC2)c1 [B2L011-01, N-tert-Butylsulfonyl-6-[4-[3-[2-(3-ethoxyphenyl)phenyl]propanoyl]piperazin-1-yl]pyridazine-3-carboxamide] |
| 4.3% | 7.3% | CCOc1cncc(-c2ccccc2CCC(=O)N2CCN(c3ccc(C(=O)NS(=O)(=O)C(C)(C)C)nn3)CC2)c1 [B2L012-01, N-tert-Butylsulfonyl-6-[4-[3-[2-(5-ethoxypyridin-3-yl)phenyl]propanoyl]piperazin-1-yl]pyridazine-3-carboxamide] |
| 0.0% | 0.0% | CCOc1cccc(-c2ccc(C(=O)N3CCN(c4ccc(C(=O)NS(=O)(=O)C(C)(C)C)nn4)CC3)c3ccccc23)c1 [B2L013-01, N-tert-Butylsulfonyl-6-[4-[4-(3-ethoxyphenyl)naphthalene-1-carbonyl]piperazin-1-yl]pyridazine-3-carboxamide] |
| 0.3% | 0.5% | CCOc1cncc(-c2ccc(C(=O)N3CCN(c4ccc(C(=O)NS(=O)(=O)C(C)(C)C)nn4)CC3)c3ccccc23)c1 [B2L014-01, N-tert-Butylsulfonyl-6-[4-[4-(5-ethoxypyridin-3-yl)naphthalene-1-carbonyl]piperazin-1-yl]pyridazine-3-carboxamide] |
| 0.0% | 0.0% | CCOc1cccc(-c2cc(C(=O)N3CCN(c4ccc(C(=O)NS(=O)(=O)C(C)(C)C)nn4)CC3)cc(C(C)(C)C)c2)c1 [B2L015-01, 6-[4-[3-tert-Butyl-5-(3-ethoxyphenyl)benzoyl]piperazin-1-yl]-N-tert-butylsulfonylpyridazine-3-carboxamide] |
| 0.0% | −5.4% | CCOc1cncc(-c2cc(C(=O)N3CCN(c4ccc(C(=O)NS(=O)(=O)C(C)(C)C)nn4)CC3)cc(C(C)(C)C)c2)c1 [B2L016-01, 6-[4-[3-tert-Butyl-5-(5-ethoxypyridin-3-yl)benzoyl]piperazin-1-yl]-N-tert-butylsulfonylpyridazine-3-carboxamide] |
| 0.0% | 0.0% | CCOc1cccc(-c2cc(C(=O)N3CCN(c4ccc(C(=O)NS(=O)(=O)C(C)(C)C)nn4)CC3)cc(C(F)(F)F)c2)c1 [B2L017-01, N-tert-Butylsulfonyl-6-[4-[3-(3-ethoxyphenyl)-5-(trifluoromethyl)benzoyl]piperazin-1-yl]pyridazine-3-carboxamide] |
| −1.9% | −2.5% | CCOc1cncc(-c2cc(C(=O)N3CCN(c4ccc(C(=O)NS(=O)(=O)C(C)(C)C)nn4)CC3)cc(C(F)(F)F)c2)c1 [B2L018-01, N-tert-Butylsulfonyl-6-[4-[3-(5-ethoxypyridin-3-yl)-5-(trifluoromethyl)benzoyl]piperazin-1-yl]pyridazine-3-carboxamide] |
